For 33 molecules, EC50 results are on record in US9809583B2 (priority 2014, dated 2017).

Where a name gives a salt, the structure may show the parent alone. Read-outs that look alike come from different tables or passages of the source.

The assay concerns the target androgen receptor (hAR) (Homo sapiens (Human), UniProt P10275). Nature of the assay: Test of transcriptional activity (hAR / ARE-Luc dual-luciferase assay in CHO cells). The assay is classed as cell-based. Particulars: CHO cells with hAR and ARE-Luc, 24 hours, 10 nM DHT = 100%. The procedure, abridged:
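Compound at 0.1˜10,000 nM applied for 24 h to CHO cells carrying transfected human AR and an ARE-driven luciferase reporter. Cells were grown 24 h before transfection; readout was dual-luciferase luminescence.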

The mark [1] stands for this setting: read-out: EC50 [nM] (mean ± SE).

Chain of androgen receptor (hAR) (P10275 whole entry): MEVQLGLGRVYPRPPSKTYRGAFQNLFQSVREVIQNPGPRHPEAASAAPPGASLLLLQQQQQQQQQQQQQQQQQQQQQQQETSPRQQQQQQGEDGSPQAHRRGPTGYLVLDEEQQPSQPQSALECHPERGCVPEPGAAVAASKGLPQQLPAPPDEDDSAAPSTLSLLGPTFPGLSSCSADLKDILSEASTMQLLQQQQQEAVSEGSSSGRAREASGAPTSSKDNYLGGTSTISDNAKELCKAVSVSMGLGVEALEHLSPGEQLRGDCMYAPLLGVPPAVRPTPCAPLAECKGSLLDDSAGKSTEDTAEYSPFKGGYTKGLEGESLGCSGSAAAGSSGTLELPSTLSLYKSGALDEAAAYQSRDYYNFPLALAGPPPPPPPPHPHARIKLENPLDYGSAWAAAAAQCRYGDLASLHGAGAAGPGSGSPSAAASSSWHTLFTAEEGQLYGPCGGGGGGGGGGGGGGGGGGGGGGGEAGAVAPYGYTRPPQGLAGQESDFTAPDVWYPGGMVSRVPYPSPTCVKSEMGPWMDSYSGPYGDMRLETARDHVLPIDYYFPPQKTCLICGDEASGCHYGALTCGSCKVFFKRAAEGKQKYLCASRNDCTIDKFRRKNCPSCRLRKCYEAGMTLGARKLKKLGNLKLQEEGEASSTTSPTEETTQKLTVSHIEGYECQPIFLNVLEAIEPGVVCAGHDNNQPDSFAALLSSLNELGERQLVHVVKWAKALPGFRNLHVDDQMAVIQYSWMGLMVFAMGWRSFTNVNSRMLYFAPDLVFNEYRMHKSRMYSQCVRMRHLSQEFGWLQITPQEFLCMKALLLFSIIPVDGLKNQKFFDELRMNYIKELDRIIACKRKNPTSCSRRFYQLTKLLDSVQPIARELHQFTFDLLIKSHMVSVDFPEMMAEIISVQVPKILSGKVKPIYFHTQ

For orientation: EC50 means the concentration needed to bring the measured effect to its halfway point. `N#Cc1ccc(N2C[C@@H](C(=O)Nc3ccc(NC(=O)CN)cc3)O[C@@H]2C(F)(F)F)cc1C(F)(F)F` [Example 163, (2R,5S)-N-(4-(2-aminoacetamido)phenyl)-3-(4-cyano-3-(trifluoromethyl)phenyl)-2-(trifluoromethyl)oxazolidine-5-carboxamide hydrochloride]: it took 214 nM to reach a half-maximal effect (EC50 [nM] (mean ± SE)) (EC50).

On to `N#Cc1ccc(N2C[C@@H](C(=O)N3CCC(C#N)CC3)O[C@@H]2C(F)(F)F)cc1C(F)(F)F` [Example 167], for which the EC50 (EC50 [nM] (mean ± SE)) was 44 nM.

The molecule `CC(=O)N1CCC(NC(=O)[C@@H]2CN(c3ccc(C#N)c(C(F)(F)F)c3)[C@@H](C(F)(F)F)O2)CC1` [Example 170, (2R,5S)-N-(1-acetylpiperidin-4-yl)-3-(4-cyano-3-(trifluoromethyl)phenyl)-2-(trifluoromethyl)oxazolidine-5-carboxamide] displayed an EC50 (EC50 [nM] (mean ± SE)) of 3560 nM.

The molecule `CC(=O)N1CCN(C(=O)[C@@H]2CN(c3ccc(C#N)c(C(F)(F)F)c3)[C@@H](C(F)(F)F)O2)CC1` [Example 172, 4-((2R,5S)-5-(4-acetylpiperazine-1-carbonyl)-2-(trifluoromethyl)oxazolidin-3-yl)-2-(trifluoromethyl)benzonitrile] had an EC50 (EC50 [nM] (mean ± SE)) of 699 nM.

In turn, `N#Cc1ccc(N2C[C@@H](C(=O)N3CCN(C#N)CC3)O[C@@H]2C(F)(F)F)cc1C(F)(F)F` [Example 174, 4-((2R,5S)-3-(4-cyano-3-(trifluoromethyl)phenyl)-2-(trifluoromethyl)oxazolidine-5-carbonyl)piperazine-1-carbonitrile] registered an EC50 (EC50 [nM] (mean ± SE)) of 139 nM.

For `N#Cc1ccc(N2C[C@@H](C(=O)N3CCC(N)CC3)O[C@@H]2C(F)(F)F)cc1C(F)(F)F` [Example 175, 4-((2R,5S)-5-(4-aminopiperidine-1-carbonyl)-2-(trifluoromethyl)oxazolidin-3-yl)-2-(trifluoromethyl)benzonitrile hydrochloride], the EC50 (EC50 [nM] (mean ± SE)) was determined as 85.2 nM.

`CC(=O)NC1CCN(C(=O)[C@@H]2CN(c3ccc(C#N)c(C(F)(F)F)c3)[C@@H](C(F)(F)F)O2)CC1` [Example 176] gave an EC50 (EC50 [nM] (mean ± SE)) of 198 nM.

As for `COC(=O)N1CCN(C(=O)[C@@H]2CN(c3ccc(C#N)c(Cl)c3)[C@@H](C(F)(F)F)O2)CC1` [Example 178, methyl 4-((2R,5S)-3-(3-chloro-4-cyanophenyl)-2-(trifluoromethyl)oxazolidine-5-carbonyl)piperazine-1-carboxylate], the EC50 (EC50 [nM] (mean ± SE)) came to 21.2 nM.

Turning to `COC(=O)N1CCN(C(=O)[C@@H]2CN(c3ccc([N+](=O)[O-])c(C)c3)[C@@H](C(F)(F)F)O2)CC1` [Example 179, methyl 4-((2R,5S)-3-(3-methyl-4-nitrophenyl)-2-(trifluoromethyl)oxazolidine-5-carbonyl)piperazine-1-carboxylate], the EC50 under setting [1] is 42 nM.

Consider “(2R,5S)-3-(3-chloro-4-cyanophenyl)-N-(4-cyano-2-fluorophenyl)-2-(trifluoromethyl)oxazolidine-5-carboxamide [Example 119]”, for which the EC50 under setting [1] is 227 nM.

In the case of “(2R,5S)-3-(3-chloro-4-cyanophenyl)-N-(4-cyanophenyl)-2-(trifluoromethyl)oxazolidine-5-carboxamide [Example 117]”, under setting [1], the EC50 was found to be 2 nM.

Regarding “(2R,5S)-3-(3-chloro-4-cyanophenyl)-N-(6-cyanopyridin-3-yl)-2-(trifluoromethyl)oxazolidine-5-carboxamide [Example 120]”, the EC50 under setting [1] turned out to be 11.1 nM.

As for “(2R,5S)-3-(3-chloro-4-cyanophenyl)-N-(pyridin-4-yl)-2-(trifluoromethyl)oxazolidine-5-carboxamide [Example 121]”, the EC50 under setting [1] was 616 nM.

As to “(2R,5S)-3-(3-chloro-4-nitrophenyl)-N-(4-cyano-2-fluorophenyl)-2-(trifluoromethyl)oxazolidine-5-carboxamide [Example 124]”, under setting [1], the EC50 stood at 3.15 nM.

On to “(2R,5S)-3-(3-chloro-4-nitrophenyl)-N-(4-cyanophenyl)-2-(trifluoromethyl)oxazolidine-5-carboxamide [Example 122]”, for which the EC50 under setting [1] is 67.4 nM.

As for “(2R,5S)-3-(3-chloro-4-nitrophenyl)-N-(6-cyanopyridin-3-yl)-2-(trifluoromethyl)oxazolidine-5-carboxamide [Example 125]”, the EC50 under setting [1] was determined as 11.2 nM.

Turning to “(2R,5S)-3-(3-chloro-4-nitrophenyl)-N-(pyridin-4-yl)-2-(trifluoromethyl)oxazolidine-5-carboxamide [Example 126]”, under setting [1], the EC50 came to 1.21 nM.

Turning to “(2R,5S)-3-(4-cyano-3-(trifluoromethyl)phenyl)-N-(3,4-dicyanophenyl)-2-(trifluoromethyl)oxazolidine-5-carboxamide [Example 132]”, under setting [1], the EC50 came out at 3.44 nM.

Turning to “(2R,5S)-3-(4-cyano-3-(trifluoromethyl)phenyl)-N-(4-cyano-3-methoxyphenyl)-2-(trifluoromethyl)oxazolidine-5-carboxamide [Example 127]”, under setting [1], the EC50 was 183 nM.

As to “(2R,5S)-N-(2-chloro-4-cyanophenyl)-3-(4-cyano-3-(trifluoromethyl)phenyl)-2-(trifluoromethyl)oxazolidine-5-carboxamide [Example 114]”, the EC50 under setting [1] is 201 nM.

In the case of “(2R,5S)-N-(2-chloropyridin-4-yl)-3-(3-methyl-4-nitrophenyl)-2-(trifluoromethyl)oxazolidine-5-carboxamide [Example 137]”, the concentration for a half-maximal effect (EC50) under setting [1] was 1.77 nM.

Consider “(2R,5S)-N-(3-chloro-4-cyano-2-fluorophenyl)-3-(4-cyano-3-(trifluoromethyl)phenyl)-2-(trifluoromethyl)oxazolidine-5-carboxamide [Example 130]”, for which, under setting [1], the EC50 worked out at 10.2 nM.

In the case of “(2R,5S)-N-(3-chloro-4-cyanophenyl)-3-(4-cyano-3-(trifluoromethyl)phenyl)-2-(trifluoromethyl)oxazolidine-5-carboxamide [Example 134]”, the EC50 under setting [1] amounted to 4.96 nM.

On to “(2R,5S)-N-(4-acetamidophenyl)-3-(3-chloro-4-cyanophenyl)-2-(trifluoromethyl)oxazolidine-5-carboxamide [Example 118]”, for which the EC50 under setting [1] is 30.4 nM.

For the molecule “(2R,5S)-N-(4-acetamidophenyl)-3-(3-methyl-4-nitrophenyl)-2-(trifluoromethyl)oxazolidine-5-carboxamide [Example 112]”, the EC50 under setting [1] stood at 10.1 nM.

In the case of “(2R,5S)-N-(4-cyano-2,5-difluorophenyl)-3-(4-cyano-3-(trifluoromethyl)phenyl)-2-(trifluoromethyl)oxazolidine-5-carboxamide [Example 131]”, the EC50 under setting [1] stood at 2.35 nM.

For the molecule “(2R,5S)-N-(4-cyano-2,6-difluorophenyl)-3-(4-cyano-3-(trifluoromethyl)phenyl)-2-(trifluoromethyl)oxazolidine-5-carboxamide [Example 129]”, under setting [1], the EC50 turned out to be 4.68 nM.

On to “(2R,5S)-N-(4-cyano-2-(trifluoromethyl)phenyl)-3-(4-cyano-3-(trifluoromethyl)phenyl)-2-(trifluoromethyl)oxazolidine-5-carboxamide [Example 128]”, for which the EC50 under setting [1] turned out to be 11.1 nM.

As for “(2R,5S)-N-(4-cyano-2-fluorophenyl)-3-(3-methyl-4-nitrophenyl)-2-(trifluoromethyl)oxazolidine-5-carboxamide [Example 113]”, the half-maximal effective concentration (EC50) under setting [1] is 80.5 nM.

Turning to “(2R,5S)-N-(4-cyano-2-methylphenyl)-3-(4-cyano-3-(trifluoromethyl)phenyl)-2-(trifluoromethyl)oxazolidine-5-carboxamide [Example 133]”, the EC50 under setting [1] was 44 nM.

Turning to “(2R,5S)-N-(4-cyanophenyl)-3-(3-methyl-4-nitrophenyl)-2-(trifluoromethyl)oxazolidine-5-carboxamide [Example 111]”, the EC50 under setting [1] was 4.46 nM.

Consider “(2R,5S)-N-(6-acetamidopyridin-3-yl)-3-(4-cyano-3-(trifluoromethyl)phenyl)-2-(trifluoromethyl)oxazolidine-5-carboxamide [Example 135]”, for which the EC50 under setting [1] was determined as 4.95 nM.

“(2R,5S)-N-(6-cyanopyridin-3-yl)-3-(3-methyl-4-nitrophenyl)-2-(trifluoromethyl)oxazolidine-5-carboxamide [Example 116]”: the EC50 under setting [1] was found to be 4.32 nM.
